Source: patent US9328099B2, “Cyanomethylpyrazole carboxamides as janus kinase inhibitors” (Merck Sharp & Dohme Corp., priority 2011, dated 2016)

Assays:
JAK1 = JAK1 (Homo sapiens (Human), UniProt P23458); test: Jak Biochemical HTRF Assay, JAK1; details: HTRF biochemical assay, GST-tagged catalytic domain; top concentration tested […]; read-out: JAK1 IC50
From the text: (§1) Jak Biochemical HTRF Assay Protocol
(§2) Subsequent reagent additions employed an Agilent Bravo.

JAK2 = JAK2 (Homo sapiens (Human), UniProt O60674); test: Jak Biochemical HTRF Assay, JAK2; details: HTRF biochemical assay, GST-tagged catalytic domain; top concentration tested […]
From the text: as §1, §2

Chain of JAK1 (P23458 875-1153): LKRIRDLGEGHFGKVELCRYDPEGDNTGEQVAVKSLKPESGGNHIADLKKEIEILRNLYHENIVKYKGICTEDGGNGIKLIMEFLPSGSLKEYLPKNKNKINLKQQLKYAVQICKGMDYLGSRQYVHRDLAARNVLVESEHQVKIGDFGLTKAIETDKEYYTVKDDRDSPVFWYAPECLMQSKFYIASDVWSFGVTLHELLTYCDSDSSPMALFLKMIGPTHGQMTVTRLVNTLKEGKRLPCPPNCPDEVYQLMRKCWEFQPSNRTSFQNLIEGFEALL
Chain of JAK2 (O60674 849-1124): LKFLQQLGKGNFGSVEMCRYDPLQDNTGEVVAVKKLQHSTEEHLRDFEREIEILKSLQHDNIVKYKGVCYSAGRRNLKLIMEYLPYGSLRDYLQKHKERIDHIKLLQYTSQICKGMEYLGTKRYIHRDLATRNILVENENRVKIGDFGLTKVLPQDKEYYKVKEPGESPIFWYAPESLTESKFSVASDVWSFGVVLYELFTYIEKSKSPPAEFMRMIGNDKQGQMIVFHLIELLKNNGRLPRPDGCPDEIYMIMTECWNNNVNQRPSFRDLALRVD

Row | IC50 (JAK1) | IC50 (JAK2) | SMILES
1 | 8 nM | 78 nM | N#CCC1(n2cc(C(N)=O)c(Nc3ccccc3)n2)CCN(Cc2ccc3c(c2)OCO3)CC1 [Example 21-10, 1-[1-(1,3-benzodioxol-5-ylmethyl)-4-(cyanomethyl)piperidin-4-yl]-3-(phenylamino)-1H-pyrazole-4-carboxamide]
2 | 0.3 nM | 6 nM | N#CCC1(n2cc(C(N)=O)c(Nc3ccccc3)n2)CCN(Cc2cccc(O)c2)CC1 [Example 21-11, 1-[4-(cyanomethyl)-1-(3-hydroxybenzyl)piperidin-4-yl]-3-(phenylamino)-1H-pyrazole-4-carboxamide]
3 | 7 nM | 128 nM | CC(=O)Nc1ccc(CN2CCC(CC#N)(n3cc(C(N)=O)c(Nc4ccccc4)n3)CC2)cc1 [Example 21-12, 1-{1-[4-(acetylamino)benzyl]-4-(cyanomethyl)piperidin-4-yl}-3-(phenylamino)-1H-pyrazole-4-carboxamide]
4 | 24 nM | 297 nM | COc1ccc2cc(CN3CCC(CC#N)(n4cc(C(N)=O)c(Nc5ccccc5)n4)CC3)ccc2c1 [Example 21-13, 1-{4-(cyanomethyl)-1-[(6-methoxynaphthalen-2-yl)methyl]piperidin-4-yl}-3-(phenylamino)-1H-pyrazole-4-carboxamide]
5 | 18 nM | 224 nM | N#CCC1(n2cc(C(N)=O)c(Nc3ccccc3)n2)CCN(Cc2c(Cl)cccc2Cl)CC1 [Example 21-14, 1-[4-(cyanomethyl)-1-(2,6-dichlorobenzyl)piperidin-4-yl]-3-(phenylamino)-1H-pyrazole-4-carboxamide]
6 | 12 nM | 242 nM | CSCCCN1CCC(CC#N)(n2cc(C(N)=O)c(Nc3ccccc3)n2)CC1 [Example 21-15, 1-{4-(cyanomethyl)-1-[3-(methylsulfanyl)propyl]piperidin-4-yl}-3-(phenylamino)-1H-pyrazole-4-carboxamide]
7 | 69 nM | 842 nM | CCOc1ccccc1CN1CCC(CC#N)(n2cc(C(N)=O)c(Nc3ccccc3)n2)CC1 [Example 21-16, 1-[4-(cyanomethyl)-1-(2-ethoxybenzyl)piperidin-4-yl]-3-(phenylamino)-1H-pyrazole-4-carboxamide]
8 | 19 nM | 208 nM | N#CCC1(n2cc(C(N)=O)c(Nc3ccccc3)n2)CCN(C/C=C/c2ccccc2)CC1 [Example 21-17, 1-{4-(cyanomethyl)-1-[(2E)-3-phenylprop-2-en-1-yl]piperidin-4-yl}-3-(phenylamino)-1H-pyrazole-4-carboxamide]
9 | 2 nM | 73 nM | N#CCC1(n2cc(C(N)=O)c(Nc3ccccc3)n2)CCN(Cc2cccc(F)c2)CC1 [Example 21-18, 1-[4-(cyanomethyl)-1-(3-fluorobenzyl)piperidin-4-yl]-3-(phenylamino)-1H-pyrazole-4-carboxamide]
10 | 35 nM | 460 nM | N#CCC1(n2cc(C(N)=O)c(Nc3ccccc3)n2)CCN(Cc2ccc(C(F)(F)F)cc2)CC1 [Example 21-19, 1-{4-(cyanomethyl)-1-[4-(trifluoromethyl)benzyl]piperidin-4-yl}-3-(phenylamino)-1H-pyrazole-4-carboxamide]
11 | 3 nM | 44 nM | N#CCC1(n2cc(C(N)=O)c(Nc3ccccc3)n2)CCN(Cc2ccc(Cl)cc2F)CC1 [Example 21-21, 1-[1-(4-chloro-2-fluorobenzyl)-4-(cyanomethyl)piperidin-4-yl]-3-(phenylamino)-1H-pyrazole-4-carboxamide]
12 | 72 nM | 888 nM | CCCc1ccc(CN2CCC(CC#N)(n3cc(C(N)=O)c(Nc4ccccc4)n3)CC2)cc1 [Example 21-22, 1-[4-(cyanomethyl)-1-(4-propylbenzyl)piperidin-4-yl]-3-(phenylamino)-1H-pyrazole-4-carboxamide]
13 | 0.8 nM | 13 nM | N#CCC1(n2cc(C(N)=O)c(Nc3ccccc3)n2)CCN(Cc2c(F)cccc2F)CC1 [Example 21-23, 1-[4-(cyanomethyl)-1-(2,6-difluorobenzyl)piperidin-4-yl]-3-(phenylamino)-1H-pyrazole-4-carboxamide]
